Test results taken from patent publication US6649421B1, “Antibodies against phoshorylated VASP (vasodilator-stimulated phosphoprotein), hybridoma cells for their preparation, and their use” (Vasopharm Biotech GmbH, priority 1997, dated 2003).

Test system: VASP phosphorylation in rat thrombocytes
Experiment: Western blot of VASP phosphorylation in rat thrombocytes
Type: cell-based
Conditions: 5 min incubation
Procedure: Rat thrombocytes (0.7×10^9 cell/ml) were incubated for 5 min with 100 μM sodium nitroprusside (SNP), with 10 μM prostaglandin E1(PgE1) or without either of these additions. The extracts of these rat thrombocytes were analyzed by Western blotting. […] Similar results are also obtained using mouse thrombocytes.

Structure (SMILES): CCCCC[C@H](O)/C=C/[C@H]1[C@H](O)CC(=O)[C@@H]1CCCCCCC(=O)O [PgE1, prostaglandin E1]
- Phosphorylation-dependent shift of VASP from 46 kDa to 50 kDa (serine 157 phosphorylation): also took place in rat thrombocytes
- Phosphorylation-dependent signal given by the 16C2 antibody (serine 239 phosphorylation): also took place in rat thrombocytes
